{
  "source": "patent US9957247B2",
  "about": "“SecA inhibitors and methods of making and using thereof” (Georgia State University Research Foundation, Inc., priority 2012, dated 2018)",
  "key": {"BsSecA": {"target": "BsSecA (Bacillus subtilis, UniProt P28366)", "sequence (P28366 whole entry)": "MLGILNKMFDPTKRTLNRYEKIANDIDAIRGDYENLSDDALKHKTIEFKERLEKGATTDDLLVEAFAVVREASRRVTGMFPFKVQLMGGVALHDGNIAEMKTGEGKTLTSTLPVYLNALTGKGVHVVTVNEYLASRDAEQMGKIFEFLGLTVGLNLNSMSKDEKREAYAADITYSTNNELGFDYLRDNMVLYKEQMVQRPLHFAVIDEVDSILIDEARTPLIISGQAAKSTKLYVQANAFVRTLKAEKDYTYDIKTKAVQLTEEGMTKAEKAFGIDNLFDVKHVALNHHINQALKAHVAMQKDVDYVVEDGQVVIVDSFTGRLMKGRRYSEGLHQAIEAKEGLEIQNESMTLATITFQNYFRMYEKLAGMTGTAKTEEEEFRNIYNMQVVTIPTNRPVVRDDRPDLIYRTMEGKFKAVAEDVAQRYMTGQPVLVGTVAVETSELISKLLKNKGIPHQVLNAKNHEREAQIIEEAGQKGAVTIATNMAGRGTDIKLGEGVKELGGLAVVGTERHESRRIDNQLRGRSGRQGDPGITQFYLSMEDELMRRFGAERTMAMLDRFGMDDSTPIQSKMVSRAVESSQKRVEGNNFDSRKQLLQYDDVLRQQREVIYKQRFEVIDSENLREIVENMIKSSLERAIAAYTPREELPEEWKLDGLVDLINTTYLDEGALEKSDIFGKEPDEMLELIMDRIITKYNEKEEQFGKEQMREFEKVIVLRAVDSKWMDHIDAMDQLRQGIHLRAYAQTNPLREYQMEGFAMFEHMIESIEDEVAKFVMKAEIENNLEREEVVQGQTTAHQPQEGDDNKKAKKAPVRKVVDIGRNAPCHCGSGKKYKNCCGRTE", "assay": "biochemical", "format": "biochemical, B. subtilis"}, "EcSecA N68": {"target": "EcSecA N68 (Escherichia coli, UniProt P10408)", "sequence (P10408 1-610)": "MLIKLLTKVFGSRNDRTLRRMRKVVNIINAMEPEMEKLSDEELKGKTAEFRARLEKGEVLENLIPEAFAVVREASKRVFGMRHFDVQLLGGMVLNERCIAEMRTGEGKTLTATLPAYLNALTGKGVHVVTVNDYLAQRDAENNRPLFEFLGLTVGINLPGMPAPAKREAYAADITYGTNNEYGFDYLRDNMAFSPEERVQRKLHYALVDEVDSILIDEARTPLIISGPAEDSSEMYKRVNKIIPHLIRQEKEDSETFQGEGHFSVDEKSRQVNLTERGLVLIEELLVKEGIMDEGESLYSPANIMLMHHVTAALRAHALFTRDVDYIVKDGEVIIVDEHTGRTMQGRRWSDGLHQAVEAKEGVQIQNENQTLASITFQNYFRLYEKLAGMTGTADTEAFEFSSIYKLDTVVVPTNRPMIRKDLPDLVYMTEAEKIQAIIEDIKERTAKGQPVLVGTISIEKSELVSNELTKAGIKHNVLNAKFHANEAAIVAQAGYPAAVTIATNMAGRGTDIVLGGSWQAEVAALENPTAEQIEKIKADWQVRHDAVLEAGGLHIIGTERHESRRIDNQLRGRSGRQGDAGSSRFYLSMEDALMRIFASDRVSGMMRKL", "assay": "biochemical", "format": "biochemical, E. coli"}, "EcSecA": {"target": "EcSecA (Escherichia coli, UniProt P10408)", "sequence (P10408 whole entry)": "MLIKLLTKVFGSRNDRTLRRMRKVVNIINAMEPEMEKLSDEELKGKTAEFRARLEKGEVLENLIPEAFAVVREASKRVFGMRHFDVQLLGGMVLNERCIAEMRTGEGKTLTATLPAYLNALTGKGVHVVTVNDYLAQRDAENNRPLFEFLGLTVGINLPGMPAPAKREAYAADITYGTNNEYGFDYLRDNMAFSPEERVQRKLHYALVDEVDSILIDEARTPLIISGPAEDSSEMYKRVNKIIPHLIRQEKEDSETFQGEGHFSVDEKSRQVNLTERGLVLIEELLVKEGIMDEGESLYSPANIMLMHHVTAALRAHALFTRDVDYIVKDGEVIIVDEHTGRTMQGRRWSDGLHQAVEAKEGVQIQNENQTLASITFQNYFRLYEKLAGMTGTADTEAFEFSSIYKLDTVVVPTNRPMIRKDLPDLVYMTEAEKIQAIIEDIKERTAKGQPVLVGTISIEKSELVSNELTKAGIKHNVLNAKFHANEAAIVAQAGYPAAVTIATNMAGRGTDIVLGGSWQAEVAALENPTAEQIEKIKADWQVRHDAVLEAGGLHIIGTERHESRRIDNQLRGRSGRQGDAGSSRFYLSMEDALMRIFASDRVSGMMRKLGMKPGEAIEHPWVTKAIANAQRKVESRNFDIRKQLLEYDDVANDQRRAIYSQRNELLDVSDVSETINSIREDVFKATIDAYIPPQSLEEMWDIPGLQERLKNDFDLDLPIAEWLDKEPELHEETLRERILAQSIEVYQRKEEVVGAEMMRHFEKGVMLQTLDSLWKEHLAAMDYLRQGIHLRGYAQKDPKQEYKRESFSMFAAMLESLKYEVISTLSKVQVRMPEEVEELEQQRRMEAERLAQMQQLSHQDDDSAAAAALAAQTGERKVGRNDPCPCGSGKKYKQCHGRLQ", "assay": "biochemical", "set-up": "species or system E. coli", "settings": "IC50, Intrinsic ATPase, Table 1, full-length EcSecA"}, "BaSecA1": {"target": "BaSecA1 (Bacillus anthracis, UniProt Q81X26)", "sequence (Q81X26 whole entry, looked up)": "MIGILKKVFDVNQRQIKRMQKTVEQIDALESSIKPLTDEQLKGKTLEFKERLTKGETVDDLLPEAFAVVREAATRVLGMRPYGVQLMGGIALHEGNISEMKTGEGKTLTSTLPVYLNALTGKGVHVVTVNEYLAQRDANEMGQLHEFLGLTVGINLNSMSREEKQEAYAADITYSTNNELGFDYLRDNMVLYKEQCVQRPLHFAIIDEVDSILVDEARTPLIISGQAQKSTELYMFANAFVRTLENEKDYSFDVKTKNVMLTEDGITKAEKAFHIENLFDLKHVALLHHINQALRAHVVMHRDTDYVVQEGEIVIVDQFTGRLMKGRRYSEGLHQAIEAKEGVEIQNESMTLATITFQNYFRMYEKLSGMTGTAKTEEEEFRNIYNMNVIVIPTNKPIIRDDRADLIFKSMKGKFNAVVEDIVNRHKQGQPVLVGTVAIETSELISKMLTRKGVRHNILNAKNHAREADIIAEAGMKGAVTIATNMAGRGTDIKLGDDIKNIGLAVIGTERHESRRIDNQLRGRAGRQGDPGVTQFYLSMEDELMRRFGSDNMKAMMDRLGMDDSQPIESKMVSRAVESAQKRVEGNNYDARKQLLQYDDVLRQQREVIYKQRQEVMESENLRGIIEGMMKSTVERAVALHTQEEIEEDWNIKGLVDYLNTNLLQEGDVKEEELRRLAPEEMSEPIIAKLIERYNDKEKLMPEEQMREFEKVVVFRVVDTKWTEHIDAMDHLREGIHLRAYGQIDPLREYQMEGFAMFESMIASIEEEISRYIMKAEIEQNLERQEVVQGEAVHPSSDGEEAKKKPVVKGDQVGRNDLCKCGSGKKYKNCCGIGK", "assay": "cell-based", "settings": "IC50, Ion Channel activity, BGaSecA 1"}, "PaSecA": {"target": "PaSecA (Pseudomonas aeruginosa, UniProt Q9LCT3)", "sequence (Q9LCT3 whole entry)": "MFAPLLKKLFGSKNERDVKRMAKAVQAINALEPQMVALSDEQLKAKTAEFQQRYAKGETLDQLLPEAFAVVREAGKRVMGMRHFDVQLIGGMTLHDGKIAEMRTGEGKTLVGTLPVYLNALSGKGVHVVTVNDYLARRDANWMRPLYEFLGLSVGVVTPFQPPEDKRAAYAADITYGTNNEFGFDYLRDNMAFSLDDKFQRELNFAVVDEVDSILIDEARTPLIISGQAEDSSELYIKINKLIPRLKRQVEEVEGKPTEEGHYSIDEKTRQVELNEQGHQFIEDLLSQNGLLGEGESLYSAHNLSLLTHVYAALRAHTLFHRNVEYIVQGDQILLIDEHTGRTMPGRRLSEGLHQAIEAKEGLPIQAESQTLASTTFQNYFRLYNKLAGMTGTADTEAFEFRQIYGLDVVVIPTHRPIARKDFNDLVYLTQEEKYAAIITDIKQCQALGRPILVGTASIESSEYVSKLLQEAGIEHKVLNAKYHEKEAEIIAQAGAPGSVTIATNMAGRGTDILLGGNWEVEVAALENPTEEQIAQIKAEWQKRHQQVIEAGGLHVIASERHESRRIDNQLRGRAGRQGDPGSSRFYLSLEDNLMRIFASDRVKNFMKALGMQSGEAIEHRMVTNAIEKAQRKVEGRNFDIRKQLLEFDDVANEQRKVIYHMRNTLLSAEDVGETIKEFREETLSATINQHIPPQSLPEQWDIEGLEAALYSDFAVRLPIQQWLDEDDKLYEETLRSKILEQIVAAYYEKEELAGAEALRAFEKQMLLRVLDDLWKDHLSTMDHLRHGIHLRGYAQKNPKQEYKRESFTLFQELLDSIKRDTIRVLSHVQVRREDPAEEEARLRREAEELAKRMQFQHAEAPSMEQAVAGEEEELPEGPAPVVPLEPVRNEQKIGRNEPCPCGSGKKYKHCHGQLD", "assay": "cell-based", "format": "cell-based", "settings": "IC50, Ion Channel activity, PASecA, Table 1"}, "MsSecA": {"target": "MsSecA (Mycolicibacterium smegmatis, UniProt P71533)", "assay": "SecA-liposomes ion-channel activity in oocytes, MsSecA", "format": "cell-based", "settings": "Table 1"}, "SpSecA": {"target": "SpSecA (Streptococcus pyogenes, UniProt Q99Y96)", "sequence (Q99Y96 whole entry)": "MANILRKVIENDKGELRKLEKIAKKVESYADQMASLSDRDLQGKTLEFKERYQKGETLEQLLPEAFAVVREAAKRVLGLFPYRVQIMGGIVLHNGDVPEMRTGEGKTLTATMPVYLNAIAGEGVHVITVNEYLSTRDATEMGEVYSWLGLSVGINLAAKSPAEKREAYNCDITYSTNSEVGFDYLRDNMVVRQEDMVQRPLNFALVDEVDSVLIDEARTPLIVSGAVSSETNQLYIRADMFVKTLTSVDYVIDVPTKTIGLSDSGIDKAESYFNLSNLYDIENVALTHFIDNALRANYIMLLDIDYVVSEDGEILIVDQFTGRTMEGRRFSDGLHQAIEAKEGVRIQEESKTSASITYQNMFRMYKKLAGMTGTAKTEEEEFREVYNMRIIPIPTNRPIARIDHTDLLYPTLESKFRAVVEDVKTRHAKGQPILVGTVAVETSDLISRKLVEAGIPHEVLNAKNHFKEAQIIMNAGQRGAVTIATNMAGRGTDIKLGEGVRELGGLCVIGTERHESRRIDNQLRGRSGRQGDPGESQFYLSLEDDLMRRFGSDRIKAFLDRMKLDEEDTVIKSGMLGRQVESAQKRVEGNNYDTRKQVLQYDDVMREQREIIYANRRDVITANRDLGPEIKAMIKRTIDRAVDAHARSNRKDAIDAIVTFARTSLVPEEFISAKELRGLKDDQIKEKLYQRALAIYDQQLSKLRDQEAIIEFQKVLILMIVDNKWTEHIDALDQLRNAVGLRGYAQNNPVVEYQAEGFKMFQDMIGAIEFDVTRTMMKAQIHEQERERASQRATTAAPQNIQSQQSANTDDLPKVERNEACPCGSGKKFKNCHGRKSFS", "format": "cell-based", "settings": "read-out: IC50, Ion Channel activity, SpSecA"}, "B. anthracis Sterne": {"system": "B. anthracis Sterne", "assay": "microbe, parasite or virus in culture", "format": "cell-based", "settings": "Bacillus anthracis, read-out: Bacteriostatic MIC95, B. anthracis Sterne"}, "S. pyogenes, MGAS5005": {"system": "S. pyogenes, MGAS5005", "assay": "MIC95, S. pyogenes MGAS5005", "format": "cell-based", "settings": "Streptococcus pyogenes, MGAS5005; read-out: MIC95, S. pyogenes MGAS5005"}, "[1]": {"system": "secretion of α-hemolysin, enterotoxin B and TSST-1 by S. aureus Mu50", "format": "cell-based"}, "S. aureus Mu50": {"system": "S. aureus Mu50", "assay": "Bactericidal effect, S. aureus Mu50", "settings": "9 μg/ml, 1 hour at 37° C., FIG. 5"}, "S. aureus Mu3": {"system": "S. aureus Mu3", "assay": "Bacteriostatic effect, S. aureus Mu3", "settings": "Staphylococcus aureus, MU3, read-out: Bacteriostatic effect, MIC, S. aureus Mu3"}},
  "data": [
    {"smiles": "CCCCCCC1c2ccc(O)cc2Oc2cc(O)ccc21", "note": "[SCA-50]", "values": [
      {"measurement": "IC50", "setting": "BsSecA", "value": 33, "unit": "µM"},
      {"measurement": "IC50", "setting": "EcSecA N68", "value": 4, "unit": "µM"},
      {"measurement": "IC50", "setting": "EcSecA", "value": 60, "unit": "µM"},
      {"measurement": "IC50", "setting": "BaSecA1", "value": 1, "unit": "µM"},
      {"measurement": "IC50", "setting": "PaSecA", "value": 3, "unit": "µM"},
      {"measurement": "IC50", "setting": "MsSecA", "value": 2.5, "unit": "µM"},
      {"measurement": "IC50", "setting": "SpSecA", "value": 1.9, "unit": "µM"},
      {"measurement": "MIC", "setting": "B. anthracis Sterne", "value": 1.7, "unit": "µg/mL"},
      {"measurement": "MIC", "setting": "S. pyogenes, MGAS5005", "value": 6.25, "unit": "µM"},
      {"measurement": "Amount of α-hemolysin, enterotoxin B, and TSST-1 in the supernatant", "setting": "[1]", "value": "significantly decreased"},
      {"measurement": "Bactericidal activity, log numbers killed, S. aureus Mu50", "setting": "S. aureus Mu50", "value": "more than 3 log numbers"},
      {"measurement": "MIC", "setting": "S. aureus Mu3", "value": 3.7, "unit": "µg/mL"}
    ]}
  ]
}
